According to US20120122896A1, “2,1,3-BENZOXADIAZOL DERIVATIVES FOR THE INHIBITION OF INFLUENZA A AND B VIRUS AND RESPIRATORY SYNCYTIAL VIRUS REPLICATION” (PIKE PHARMA GMBH, priority 2009, published 2012):

Tests used:
HA-tagged PA of FluA = conditions: read-out: IC50 (nM) PA (FluA)
HA-tagged PA from FluB = assay: competitive ELISA, PB1 peptide / PA of FluB; type: binding, influenza B virus

## MDVNPYFLFLKVPAQ [PB11-15 AT6Y, L7F]
HA-tagged PA of FluA
  IC50: 7.51 nM
HA-tagged PA from FluB
  IC50: 345 nM
